# Patent US20260241012A1, “1,8-NAPHTHYRIDIN-2-ONE HETEROBIFUNCTIONAL BCL6 DEGRADERS” (Treeline Biosciences, Inc., priority 2022, published 2026)
# Target: T1, N-terminal HiBiT tagged BCL6 (Homo sapiens, UniProt P41182)
# T1 construct: expressed in transfected cells; host or cells: HT1080 (ATCC CCL-121), stably transduced with lentivirus pLV-UBC-N-HiBiT-BCL6-PGK-puro
# Test: HiBiT based degradation assay
# Assay type: cell-based
# Settings: HT1080 cells expressing N-terminal HiBiT tagged BCL6, 5 hours of incubation; for Ymin (5 hr): BCL6 degradation normalized with DMSO control; for DC50: four-parameter logistic model, read-out: EC50 (5 hr)
# Text: Human BCL6 protein coding open reading frame fused with N-terminal HiBiT coding sequence was synthesized from Integrated DNA Technologies (IDT). Next, the N-HiBiT-BCL6 sequence was cloned into pLV-UBC-PGK-Puro, a lentivirus plasmid purchased from Vectorbuilder, to generate pLV-UBC-N-HiBiT-BCL6-PGK-puro. Lentiviral particles were generated from Lenti-X™ 293T cells (Clontech) by co-transfection of pLV-UBC-N-HiBiT-BCL6-PGK-puro plasmids and lentiviral packaging plasmid mix (Cellecta). HT1080 [HT1080] (ATCC CCL-121) cells were infected with the lentivirus, and HT1080 cells stably integrated with the lentiviral vectors were established by incubation with 1 μg/mL puromycin (Thermofisher).
# HT1080 cells expressing N-terminal HiBiT tagged BCL6 were dispensed into a 384-well plate pre-spotted with compounds at varying concentrations. Five thousand cells were seeded into each well in 40 μL of RPMI 1640 media plus 10% Fetal Bovine Serum (10082-147, Thermofisher). After 5 hours of incubation at 37° C. with 5% CO2, 30 μL of the NANO-GLOR HiBiT Lytic Detection System working solution (Promega) was added to each well and incubated at room temperature for 15 min. After incubation, luminescence was read on a PHERAstar FSX Plate Reader (BMG). BCL6 degradation at each indicated concentration was normalized with DMSO control. The BCL6 degradation curves were plotted using a four-parameter logistic model.
SMILES,Ymin (5 hr),DC50
"CNC(=O)COc1cc2cc(Nc3nc(N4CCN(CC5CCN(c6cccc7c(C8CCC(=O)NC8=O)nn(C)c67)CC5)[C@@H](C(F)(F)F)C4)ncc3Cl)cnc2n(C)c1=O (stereo partly drawn) [Compound 141a, 2-((6-((5-chloro-2-((3R)-4-((1-(3-(2,6-dioxopiperidin-3-yl)-1-methyl-1H-indazol-7-yl)piperidin-4-yl)methyl)-3-(trifluoromethyl)piperazin-1-yl)pyrimidin-4-yl)amino)-1-methyl-2-oxo-1,2-dihydro-1,8-naphthyridin-3-yl)oxy)-N-methylacetamide]",+++ (30% ≤ Ymin < 50%),10 to 100 nM
"CNC(=O)COc1cc2cc(Nc3cc(N4CCC(CN5CCN(c6cccc7c(C8CCC(=O)NC8=O)nn(C)c67)[C@@H](C)C5)CC4)ncc3Cl)cnc2n(C(C)C)c1=O (stereo partly drawn) [Compound 217b, 2-[[6-[[5-chloro-2-[4-[[(3S)-4-[3-(2,6-dioxo-3-piperidyl)-1-methyl-indazol-7-yl]-3-methyl-piperazin-1-yl]methyl]-1-piperidyl]-4-pyridyl]amino]-1-isopropyl-2-oxo-1,8-naphthyridin-3-yl]oxy]-N-methyl-acetamide]",+ (Ymin ≥ 70%),≥ 1000 nM
"CNC(=O)COc1cc2cc(Nc3nc(N4CC5(CCC(Nc6ccc(F)c7c(C8CCC(=O)NC8=O)nn(C)c67)CC5)C4)ncc3Cl)cnc2n(C(C)C)c1=O (stereo not drawn) [Compound 198, 2-[[6-[[5-chloro-2-[7-[[3-(2,6-dioxo-3-piperidyl)-4-fluoro-1-methyl-indazol-7-yl]amino]-2-azaspiro[3.5]nonan-2-yl]pyrimidin-4-yl]amino]-1-isopropyl-2-oxo-1,8-naphthyridin-3-yl]oxy]-N-methyl-acetamide]",++ (50% ≤ Ymin < 70%),10 to 100 nM
"CNC(=O)COc1cc2cc(Nc3nc(N4CCC(CN5CCN(c6cccc7c(C8CCC(=O)NC8=O)nn(C)c67)C[C@H]5C)CC4)ncc3F)cnc2n(C(C)C)c1=O (stereo partly drawn) [Compound 188a, 2-[[6-[[2-[4-[[(2R)-4-[3-(2,6-dioxo-3-piperidyl)-1-methyl-indazol-7-yl]-2-methyl-piperazin-1-yl]methyl]-1-piperidyl]-5-fluoro-pyrimidin-4-yl]amino]-1-isopropyl-2-oxo-1,8-naphthyridin-3-yl]oxy]-N-methyl-acetamide]",+++ (30% ≤ Ymin < 50%),10 to 100 nM
"CNC(=O)COc1cc2cc(Nc3nc(N4CCN(CC5CCN(c6cccc7c(C8CCC(=O)NC8=O)nn(C)c67)CC5)C[C@H]4CO)ncc3Cl)cnc2n(C(C)C)c1=O (stereo partly drawn) [Compound 155a, 2-((6-((5-chloro-2-((2S)-4-((1-(3-(2,6-dioxopiperidin-3-yl)-1-methyl-1H-indazol-7-yl)piperidin-4-yl)methyl)-2-(hydroxymethyl)piperazin-1-yl)pyrimidin-4-yl)amino)-1-isopropyl-2-oxo-1,2-dihydro-1,8-naphthyridin-3-yl)oxy)-N-methylacetamide]",+++ (30% ≤ Ymin < 50%),10 to 100 nM
"CNC(=O)COc1cc2cc(Nc3nc(N4CCC(F)(CN5CCN(c6cccc7c(C8CCC(=O)NC8=O)nn(C)c67)C[C@@H]5C)CC4)ncc3Cl)cnc2n(C(C)C)c1=O (stereo partly drawn) [Compound 189a, 2-[[6-[[5-chloro-2-[4-[[(2S)-4-[3-(2,6-dioxo-3-piperidyl)-1-methyl-indazol-7-yl]-2-methyl-piperazin-1-yl]methyl]-4-fluoro-1-piperidyl]pyrimidin-4-yl]amino]-1-isopropyl-2-oxo-1,8-naphthyridin-3-yl]oxy]-N-methyl-acetamide]",++++ (Ymin < 30%),10 to 100 nM
"CNC(=O)COc1cc2cc(Nc3nc(N4C[C@@H]5C[C@H]4CN5CC4CCN(c5cccc6c(C7CCC(=O)NC7=O)nn(C)c56)CC4)ncc3Cl)cnc2n(C(C)C)c1=O (stereo partly drawn) [Compound 174b, 2-[[6-[[5-chloro-2-[(1S,4S)-5-[[1-[3-(2,6-dioxo-3-piperidyl)-1-methyl-indazol-7-yl]-4-piperidyl]methyl]-2,5-diazabicyclo[2.2.1]heptan-2-yl]pyrimidin-4-yl]amino]-1-isopropyl-2-oxo-1,8-naphthyridin-3-yl]oxy]-N-methyl-acetamide]",+++ (30% ≤ Ymin < 50%),10 to 100 nM
"CNC(=O)COc1cc2cc(Nc3nc(N4CCN(C[C@H]5CCN(c6ccc7c(C8CCC(=O)NC8=O)nn(C)c7c6)C5)[C@@H](C)C4)ncc3Cl)cnc2n(C(C)C)c1=O (stereo partly drawn) [Compound 216a, 2-[[6-[[5-chloro-2-[(3S)-4-[[(3R)-1-[3-(2,6-dioxo-3-piperidyl)-1-methyl-indazol-6-yl]pyrrolidin-3-yl]methyl]-3-methyl-piperazin-1-yl]pyrimidin-4-yl]amino]-1-isopropyl-2-oxo-1,8-naphthyridin-3-yl]oxy]-N-methyl-acetamide]",++ (50% ≤ Ymin < 70%),10 to 100 nM
"CNC(=O)COc1cc2cc(Nc3nc(N4CCN(CC5CCN(c6cccc7c(C8CCC(=O)NC8=O)nn(C)c67)CC5)C(C)(C)C4)ncc3Cl)cnc2n(C(C)C)c1=O (stereo not drawn) [Compound 172, 2-[[6-[[5-chloro-2-[4-[[1-[3-(2,6-dioxo-3-piperidyl)-1-methyl-indazol-7-yl]-4-piperidyl]methyl]-3,3-dimethyl-piperazin-1-yl]pyrimidin-4-yl]amino]-1-isopropyl-2-oxo-1,8-naphthyridin-3-yl]oxy]-N-methyl-acetamide]",+++ (30% ≤ Ymin < 50%),10 to 100 nM

# The remaining lines, values ahead:
Ymin (5 hr),DC50,SMILES
++ (50% ≤ Ymin < 70%),< 10 nM,"CNC(=O)COc1cc2cc(Nc3nc(N4CCN(CC5CCN(c6ccc7c(C8CCC(=O)NC8=O)nn(C)c7c6)CC5)[C@@H](C)C4)ncc3Cl)cnc2n(C(C)C)c1=O (stereo partly drawn) [Compound 106a, 2-((6-((5-chloro-2-((3S)-4-((1-(3-(2,6-dioxopiperidin-3-yl)-1-methyl-1H-indazol-6-yl)piperidin-4-yl)methyl)-3-methylpiperazin-1-yl)pyrimidin-4-yl)amino)-1-isopropyl-2-oxo-1,2-dihydro-1,8-naphthyridin-3-yl)oxy)-N-methylacetamide]"
++++ (Ymin < 30%),< 10 nM,"CNC(=O)COc1cc2cc(Nc3nc(N4CC5(CC[C@H](Oc6ccc7c(C8CCC(=O)NC8=O)nn(C)c7c6)[C@H](C)C5)C4)ncc3Cl)cnc2n(C(C)C)c1=O (single isomer, unassigned) [Compound 185a]"
++++ (Ymin < 30%),< 10 nM,"CNC(=O)COc1cc2cc(Nc3nc(N4CC5(CC[C@@H](Nc6ccc7c(C8CCC(=O)NC8=O)nn(C)c7c6)[C@@H](C(F)(F)F)C5)C4)ncc3Cl)cnc2n(C(C)C)c1=O (relative stereo) [Compound 221a, 2-((6-((5-chloro-2-((6S,7R)-7-((3-(2,6-dioxopiperidin-3-yl)-1-methyl-1H-indazol-6-yl)amino)-6-(trifluoromethyl)-2-azaspiro[3.5]nonan-2-yl)pyrimidin-4-yl)amino)-1-isopropyl-2-oxo-1,2-dihydro-1,8-naphthyridin-3-yl)oxy)-N-methylacetamide]"
++++ (Ymin < 30%),< 10 nM,"CNC(=O)COc1cc2cc(Nc3nc(N4CCC(CN5CCN(c6cccc7c(C8CCC(=O)NC8=O)nn(C)c67)C[C@@H]5CO)CC4)ncc3Cl)cnc2n(C(C)C)c1=O (stereo partly drawn) [Compound 231b, 2-[[6-[[5-chloro-2-[4-[[(2R)-4-[3-(2,6-dioxo-3-piperidyl)-1-methyl-indazol-7-yl]-2-(hydroxymethyl)piperazin-1-yl]methyl]-1-piperidyl]pyrimidin-4-yl]amino]-1-isopropyl-2-oxo-1,8-naphthyridin-3-yl]oxy]-N-methyl-acetamide]"
+++ (30% ≤ Ymin < 50%),< 10 nM,"CNC(=O)COc1cc2cc(Nc3nc(N4CCN(C(=O)N5CCC(c6ccc7c(C8CCC(=O)NC8=O)nn(C)c7c6)CC5)CC4)ncc3Cl)cnc2n(C(C)C)c1=O (stereo not drawn) [Compound 220, 2-[[6-[[5-chloro-2-[4-[4-[3-(2,6-dioxo-3-piperidyl)-1-methyl-indazol-6-yl]piperidine-1-carbonyl]piperazin-1-yl]pyrimidin-4-yl]amino]-1-isopropyl-2-oxo-1,8-naphthyridin-3-yl]oxy]-N-methyl-acetamide]"
+++ (30% ≤ Ymin < 50%),< 10 nM,"CNC(=O)COc1cc2cc(Nc3nc(N4CCN(CC5CCN(c6ccc7c(C8CCC(=O)NC8=O)nn(C)c7c6)CC5)[C@@H](CO)C4)ncc3Cl)cnc2n(C(C)C)c1=O (stereo partly drawn) [Compound 153a, 2-((6-((5-chloro-2-((3R)-4-((1-(3-(2,6-dioxopiperidin-3-yl)-1-methyl-1H-indazol-6-yl)piperidin-4-yl)methyl)-3-(hydroxymethyl)piperazin-1-yl)pyrimidin-4-yl)amino)-1-isopropyl-2-oxo-1,2-dihydro-1,8-naphthyridin-3-yl)oxy)-N-methylacetamide]"
